{"source": "patent US9220680B2", "about": "“Compositions and methods for localized drug delivery through mammary papillae” (South Dakota State University, priority 2012, dated 2015)", "key": {"[1]": {"test": "Permeation across human breast skin (Experiments 16-18)", "assay_type": "in vitro ADME", "settings": "human breast skin, value (SEM)", "from_the_text": "Mammary papillae and skin tissues were thawed. Keratin plugs were removed from the mammary papilla tissues using swabs with ethanol. […] The drug solutions were spiked with radioactive substances. […] Receptor medium was PBS with 7.4 pH. […] Results may be seen in FIG. 41 and Table 20.\nMammary papillae and skin tissues were thawed. Keratin plugs were removed from the mammary papilla tissues using swabs with ethanol. […] The drug solutions were spiked with radioactive substances. […] Receptor medium was PBS with 7.4 pH. […] Results may be seen in FIG. 42 and Table 22. […]"}, "[2]": {"test": "Permeation across human mammary areola vs human breast skin (Experiments 19-21)", "settings": "cadaver tissue; donor in 50:50 ethanol:water; 48 hours", "protocol": "Mammary areolae and skin tissues were procured from a cadaver (Pacific Islander). […] The drug solutions were spiked with radioactive substances. Now 500 μl of the formulation was placed in the donor. Receptor medium was PBS with 7.4 pH. Three […] samples of donor were taken to determine DPM of donors. 200 μl samples were taken from the receptor at pre-determined time points. […] Results may be seen in FIG. 44.\nMammary areolae and skin tissues were procured from a cadaver (Pacific Islander). […] The drug solutions were spiked with radioactive substances. Now 500 μl of the formulation was placed in the donor. Receptor medium was PBS with 7.4 pH. Three 400 μl samples of donor were taken to determine DPM of donors. 200 μl samples were taken from the receptor at pre-determined time points. […] Results may be seen in FIG. 45.\nMammary areolae and skin tissues were procured from a cadaver (Pacific Islander). […] The drug solutions were spiked with radioactive substances. Now 500 μl of the formulation was placed in the donor. Receptor medium was PBS with 7.4 pH. Three 400 μl samples of donor were taken to determine DPM of donors. 200 μl samples were taken from the receptor at pre-determined time points. […] Results may be seen in FIG. 46."}, "[3]": {"test": "Biodistribution of 5FU in rats 6 hours after intraductal and intravenous injection (Experiment 23)", "assay_type": "in vivo, Sprague-Dawley rats", "settings": "rat", "protocol": "(§1) The hair on the skin of the rats was removed using a hair removing formulation. The treatment was given after 24 hours to make sure the skin is recovered if damaged or altered due to the hair removal treatment.\n(§2) Next day, the rats were placed under controlled Isoflurane anesthesia. Now 500 μl of Blood samples were collected from each animal before beginning the experiment, by retro-orbital technique, as a control. For intraductal injection the mammary papilla to be treated was gently wiped with an alcoholic cotton swab to remove the keratin plug. Now 100 μl of 5FU solution in saline (10 mg/ml) was injected into the duct of the mammary papilla under a stereo-microscope. After this the animal was removed from anesthesia and placed into the cage. In case of intravenous injection, similar to intraductal, 100 μl of 5FU solution in saline (10 mg/ml) was injected into the tail vein and the animal was placed into the cage for 6 hours. At the end of 6 hours 500 μl of blood sample was collected. After this the rats were euthanized. Now for intraductal injection the treated area of the rat was cleaned with water. The rat was opened from the abdominal skin. Treated mammary papilla and mammary gland existing underneath the treated mammary papilla was excised and collected. Lateral mammary papilla and mammary gland was collected along with distant mammary papilla and mammary gland, as controls. Followed by this other organs including heart, brain, liver, spleen, kidneys and lungs were collected. In case of intravenous treatment, blood was collected and mammary tissues (mammary papilla, mammary gland and surrounding breast skin) was collected along with other organs including heart, brain, liver, spleen, kidneys and lungs. All the tissues were weighed and then mechanically homogenized to extract the drug. The homogenates were mixed with hydrogen peroxide solution (30% v/v) and then radioactivity into the samples was measured by liquid scintillation counting. Similarly blood samples were centrifuged and the supernatants were analyzed by scintillation counting. Results may be seen in FIG. 49, Table 28 and Table 29."}, "[4]": {"test": "Biodistribution of 5FU in rats 30 minutes after intraductal and intravenous injection (Experiment 24)", "assay_type": "in vivo, Sprague-Dawley rats", "settings": "rat; for Drug per gram tissue of mammary papilla: 30 min, n=1", "protocol": "as §1\nas §2, with “50” for “100”, “30 minutes.” for “6 hours.”, “30 minutes” for “6 hours”, “50, Tables 30-31.” for “49, Table 28 and Table 29.”"}}}
{"compound": "O=c1[nH]cc(F)c(=O)[nH]1", "note": "[5FU, 5-fluorouracil]", "values": [{"measurement": "lag time", "setting": "[1]; 5FU 20 mg/ml in 1:1 ethanol:water", "result": "3.64 (0.37) hours"}, {"measurement": "cumulative amount permeated", "setting": "[1]; 5FU 20 mg/ml, 48 hours", "result": "2.69 (0.22) μmole"}, {"measurement": "Drug retention in tissue", "setting": "[1]; 5FU 20 mg/ml, end of 48 hours", "result": "9.56 (1.11) umole/g of tissue"}, {"measurement": "Flux", "setting": "[1]; 5FU 20 mg/ml", "result": "0.08 (0.01) μmole/cm^2/hour"}, {"measurement": "Permeability across human mammary areola compared with human breast skin", "setting": "[2]", "result": "lower than that across human breast skin"}, {"measurement": "5FU in vital organs of the body", "setting": "[3]; intraductal and intravenous injection", "result": "significant amount of 5FU in vital organs of the body including kidneys, liver and brain"}, {"measurement": "Drug per gram tissue, mammary gland", "setting": "[3]; intraductal injection", "result": 0, "unit": "µmol/g"}, {"measurement": "Drug per gram tissue, surrounding skin", "setting": "[3]; intraductal injection", "result": 0.23, "unit": "µmol/g"}, {"measurement": "Drug per gram tissue of mammary papilla", "setting": "[3]; intraductal injection 100 μl of 10 mg/ml 5FU in saline", "result": 1.36, "unit": "µmol/g"}, {"measurement": "Drug per gram tissue, mammary gland", "setting": "[3]; intravenous injection", "result": 0, "unit": "µmol/g"}, {"measurement": "Drug per gram tissue, surrounding skin", "setting": "[3]; intravenous injection", "result": 0, "unit": "µmol/g"}, {"measurement": "Drug per gram tissue of mammary papilla", "setting": "[3]; intravenous injection 100 μl of 10 mg/ml 5FU in saline", "result": 0, "unit": "µmol/g"}, {"measurement": "Drug per gram tissue, mammary gland", "setting": "[4]; ID (30 min)", "result": 0.018, "unit": "µmol/g"}, {"measurement": "Drug per gram tissue, surrounding skin", "setting": "[4]; ID (30 min)", "result": 0.03, "unit": "µmol/g"}, {"measurement": "Drug per gram tissue, mammary gland", "setting": "[4]; IV (30 min)", "result": 0.009, "unit": "µmol/g"}, {"measurement": "Drug per gram tissue, surrounding skin", "setting": "[4]; IV (30 min)", "result": 0, "unit": "µmol/g"}, {"measurement": "5FU in vital organs of the body", "setting": "[4]; intraductal and intravenous injection, 30 minutes", "result": "significant amount of 5FU in vital organs of the body including kidneys, liver and brain"}, {"measurement": "Drug per gram tissue of mammary papilla", "setting": "[4]; intraductal injection 50 μl of 10 mg/ml 5FU in saline", "result": 0.16, "unit": "µmol/g"}, {"measurement": "Drug per gram tissue of mammary papilla", "setting": "[4]; intravenous injection 50 μl of 10 mg/ml 5FU in saline", "result": 0, "unit": "µmol/g"}]}
